Measured values reported in US4742062A, “Benzylpiperazine compound and pharmaceutical composition as hypolipidemic agent” (Kanebo, Ltd., priority 1985, dated 1988).
“Also recorded” adds a separate entry of the source.

Key:
[1] = tested on: rats fed with normal feed (serum cholesterol); test: Blood cholesterol lowering activity in rats fed with normal feed (Experiment 1); type: in vivo, Wistar male rats; details: for Serum cholesterol level, mean ± S.E. / Percentage change of serum cholesterol: once a day for 7 days; for Percentage change of serum cholesterol: vs untreated group
Description: It was done by a method similar to that of A. V. Ginocchio et al. (cf. A. V. Ginocchio et al., Arzneim.Forsch./Drug Res., Vol. 30, 2032-2034, 1980).
Wistar male rats (weighing 100-130 g, one group: 6 rats) were administered with a suspension of the test compound in 3 w/v % aqueous gum arabic solution once a day for 7 days. 24 hours after the final administration of the test compound, under light anesthesia with ether, the femoral artery and vein were cut and blood was collected therefrom. The blood was centrifuged at 3,000 r.p.m. for 10 minutes to collect serum. The serum cholesterol was measured by an enzymatic method using an agent for measuring total cholesterol (Determiner® TC "5", manufactured by Kyowa Medex Co., Ltd.) (cf. Charles C. Allain et al., Clin. Chem., Vol. 20, 470-475, 1974).
From the data thus obtained, a mean value (X) of the serum cholesterol level in the group to which no test compound was administered and a mean value (Y) of the serum cholesterol level in the group to which the test compound was administered were calculated, and the significant difference between them was tested (t-test). From the resulting data, the percentage change of serum cholesterol in the test compound-administering group was calculated by the following equation. [formula]

[2] = tested on: hypercholesterolemic mice (plasma cholesterol); test: Blood cholesterol lowering activity in hypercholesterolemic mice (Experiment 3); type: in vivo, ddY male mice; details: for Plasma cholesterol level, mean ± S.E. / Percentage change of plasma cholesterol: orally, three times; for Percentage change of plasma cholesterol: vs untreated group
Source text: (2) Test method: It was done by a method similar to that described in H. Ozawa, Screening of Pharmaceutical Activities for Development of New Drugs - Recent Movement and Practice, Vol. 1, 84-86, 1984 issued by […] Shoin (Tokyo). ddY male mice (weighing 10 - 12 g, one group: 10 mice) were fed with hypercholesterol feed [prepared by mixing CE-2 Feed (manufactured by CLEA JAPAN INC.) with cholesterol 1 w/w %, cholic acid 0.5 w/w % and sucrose 10 w/w %]. After 7 days from the starting of feeding with the hypercholesterol feed, and thereafter 6 hours and further 24 hours (totally three times), a suspension of the test compound in 3 w/v % aqueous gum arabic solution was orally administered. 3 hours after the final administration of the test compound, blood was collected from orbital vessel with hematocrit capillary (manufactured by TERUMO Corporation, treated with heparin). The blood was centrifuged at 10,000 r.p.m. for 2 minutes to collect blood plasma. The plasma cholesterol was measured in the same manner as described in Experiment 1. From the data thus obtained, a mean value (X) of the plasma cholesterol level in the no test compound-administering group and a mean value (Y) of the plasma cholesterol level in the test compound-administering group were calculated, and the significant difference between them was tested (t-test). From the resulting data, the percentage change of plasma cholesterol in the test compound-administering group was calculated by the following equation. [formula]

mice (liver) = test: Test of hepatic toxicity in mice, weight of liver (Experiment 5); type: in vivo, ddY male mice; details: for Weight of liver, mean ± S.E. / Percentage change of weight of liver: 7 days; for Percentage change of weight of liver: vs untreated group
Source text: ddY male mice (weighing 21-23 g, one group: 10 mice) were fed with a mixture of the test compound with powdery feed CE-2 (manufactured by CLEA JAPAN INC.) for 7 days. When the mice fed with the feed mixed with the test compound (test compound-administering group) and the mice fed with the feed mixed with no test compound (no test compound-administering group) were compared as to the feed uptake amount and body weight, there was observed no difference between two groups. After feeding for 7 days, under light anesthesia with ether, the liver was taken out, and the weight thereof was measured.
(§1) From the data thus obtained, a mean value (X) of the weight of liver in the no test compound-administering group and a mean value (Y) of the weight of liver in the test compound-administering group were calculated, and the significant difference between them was tested (t-test). From the resulting data, the percentage change of weight of liver in the test compound-administering group was calculated by the following equation. [formula]

[3] = Test of acute toxicity (LD50) in mice (Experiment 6); type: in vivo; details: mouse, in vivo, po, orally, 7 days observation, Weil method
Source text: (§2) ddY male mice (weighing 20-25 g, one group: 5 mice) were orally administered with a suspension of the test compound in 3 w/v % aqueous gum arabic solution.

[4] = tested on: mice fed with normal feed (serum cholesterol); test: Blood cholesterol lowering activity in mice fed with normal feed (Experiment 2); type: in vivo, ddY male mice; details: for Serum cholesterol level, mean ± S.E. / Percentage change of serum cholesterol: 7 days; for Percentage change of serum cholesterol: vs untreated group
Source text: (2) Test method: It was done by a method similar to that of H. B. Right et al. (cf. H. B. Right et al., J. Med. Chem., Vol. 7, 113-115, 1964). ddY male mice (weighing 21-23 g, one group: 10 mice) were fed with a mixture of the test compound with powdery feed CE-2 (manufactured by CLEA JAPAN INC.) for 7 days. When the mice fed with the feed mixed with the test compound (test compound-administering group) and the mice fed with the feed mixed with no test compound (no test compound-administering group) were compared as to the feed uptake amount and body weight, there was observed no difference between two groups. After feeding for 7 days, under light anesthesia with ether, the femoral artery and vein were cut and blood was collected therefrom. The blood was centrifuged at 3,000 r.p.m. for 10 minutes to collect serum. The serum cholesterol was measured in the same manner as described in Experiment 1. From the data thus obtained, a mean value (X) of the serum cholesterol level in the no test compound-administering group and a mean value (Y) of the serum cholesterol level in the test compound-administering group were calculated, and the significant difference between them was tested (t-test). From the resulting data, the percentage change of serum cholesterol in the test compound-administering group was calculated by the following equation. [formula]

rats (liver) = test: Test of hepatic toxicity in rats, weight of liver (Experiment 4); type: in vivo, Wistar male rats; details: for Weight of liver, mean ± S.E. / Percentage change of weight of liver: orally, once a day for 7 days; for Percentage change of weight of liver: vs untreated group
Description: Wistar male rats (weighing 100-130 g, one group: […]) were orally administered with a suspension of the test compound in 3 w/v % aqueous gum arabic solution once a day for 7 days. 24 hours after the final administration of the test compound, under light anesthesia with ether, the liver was taken out and the weight thereof was measured.
as §1

cholesterol = details: clinical use; J. K. Reddy et al., Nature, Vol. 283, 397-398, 1980; cited from earlier work
mice = test: Test of acute toxicity (LD50) in mice (Experiment 6); type: in vivo; details: orally, result in words
Source text: as §2

[5] = dose per once 100 mg/kg, *** p < 0.001 (compound of this invention)
[6] = conc. of test compd. in feeds 0.025%
[7] = conc. of test compd. in feeds 0.05%, ** p < 0.01 (reference compound)
[8] = conc. of test compd. in feeds 0.05%
[9] = conc. of test compd. in feeds 0.1%, * p < 0.05 (reference compound)
[10] = conc. of test compd. in feeds 0.1%
[11] = conc. of test compd. in feeds 0.025%, *** p < 0.001
[12] = conc. of test compd. in feeds 0.05%, *** p < 0.001
[13] = conc. of test compd. in feeds 0.1%, *** p < 0.001
[14] = dose per once 50 mg/kg, ** p < 0.01
[15] = normal feed, result in words, dihydrochloride
[16] = result in words, dihydrochloride
[17] = conc. of test compd. in feeds 0.0125%

With `CC(C)(Sc1cc(C(C)(C)C)c(O)c(C(C)(C)C)c1)Sc1cc(C(C)(C)C)c(O)c(C(C)(C)C)c1` [Reference compound, reference compound] the “Serum cholesterol level, mean ± S.E.” value [1, 5] was 70.8 ± 2.0 mg/dL, the “Percentage change of serum cholesterol” value ([1]; dose per once 100 mg/kg) was -0.1% and the “Plasma cholesterol level, mean ± S.E.” value [2, 5] was 386.2 ± 10.5 mg/dL. The “Percentage change of plasma cholesterol” value ([2]; dose per once 100 mg/kg) was -13.4%, the “Weight of liver, mean ± S.E.” value (mice (liver); [6]) was 6.66 ± 0.22 g/100 g of body weight and the “Percentage change of weight of liver” value (mice (liver); [6]) was “+4.9%”. For the same molecule, the “Weight of liver, mean ± S.E.” value (mice (liver); [7]) was 7.11 ± 0.13 g/100 g of body weight, the “Percentage change of weight of liver” value (mice (liver); [8]) was “+12.0%” and the “Weight of liver, mean ± S.E.” value (mice (liver); [9]) was 7.03 ± 0.09 g/100 g of body weight. The “Percentage change of weight of liver” value (mice (liver); [10]) was “+10.7%”, the LD50 at 168 h [3] was greater than 5000 mg/kg and the “Serum cholesterol level, mean ± S.E.” value [4, 11] was 121.7 ± 3.1 mg/dL. The “Percentage change of serum cholesterol” value [4, 6] was -19.0%, the “Serum cholesterol level, mean ± S.E.” value [4, 12] was 104.8 ± 4.4 mg/dL and the “Percentage change of serum cholesterol” value [4, 8] was -30.2%. The “Serum cholesterol level, mean ± S.E.” value [4, 13] was 84.4 ± 5.4 mg/dL, the “Percentage change of serum cholesterol” value [4, 10] was -43.8% and the “Weight of liver, mean ± S.E.” value (rats (liver); dose per once 100 mg/kg) was 4.68 ± 0.09 g/100 g of body weight. The “Percentage change of weight of liver” value (rats (liver); dose per once 100 mg/kg) was -4.7%.
For `CCOC(=O)C(C)(C)Oc1ccc(Cl)cc1` [clofibrate, ethyl p-chlorophenoxyisobutyrate], the side effect (cholesterol) is listed as “hepatic toxicity”.
With `Cl.Cl.Clc1ccc(CN2CCN(CC=Cc3ccc(Cl)cc3Cl)CC2)cc1` [Compound of this invention, 1-(4-Chlorobenzyl)-4-(2,4-dichlorocinnamyl)-piperazine dihydrochloride] the “Serum cholesterol level, mean ± S.E.” value ([1]; dose per once 12.5 mg/kg) was 67.1 ± 2.1 mg/dL, the “Percentage change of serum cholesterol” value ([1]; dose per once 12.5 mg/kg) was -5.4% and the “Serum cholesterol level, mean ± S.E.” value ([1]; dose per once 25 mg/kg, *** p < 0.001) was 62.8 ± 0.8 mg/dL. The “Percentage change of serum cholesterol” value ([1]; dose per once 25 mg/kg) was -11.4%, the “Serum cholesterol level, mean ± S.E.” value [1, 14] was 64.4 ± 1.6 mg/dL and the “Percentage change of serum cholesterol” value ([1]; dose per once 50 mg/kg) was -9.2%. For the same molecule, the “Serum cholesterol level, mean ± S.E.” value [1, 5] was 44.6 ± 2.1 mg/dL, the “Percentage change of serum cholesterol” value ([1]; dose per once 100 mg/kg) was -37.1% and the “serum cholesterol lowering activity in comparison with probucol” value [1, 15] was “higher activities than those of probucol in all experiments; also recorded: more potent serum cholesterol lowering activity in comparison with the known probucol”. For the same molecule, the “Plasma cholesterol level, mean ± S.E.” value ([2]; dose per once 25 mg/kg, ** p < 0.01) was 313.1 ± 26.0 mg/dL, the “Percentage change of plasma cholesterol” value ([2]; dose per once 25 mg/kg) was -29.8% and the “Plasma cholesterol level, mean ± S.E.” value [2, 14] was 314.5 ± 16.3 mg/dL. The “Percentage change of plasma cholesterol” value ([2]; dose per once 50 mg/kg) was -29.5%, the “Plasma cholesterol level, mean ± S.E.” value [2, 5] was 256.0 ± 19.4 mg/dL and the “Percentage change of plasma cholesterol” value ([2]; dose per once 100 mg/kg) was -42.6%. The “plasma cholesterol lowering activity in comparison with probucol” value [2, 16] was “more potent plasma cholesterol lowering activity in comparison with the known probucol; also recorded: higher activities than those of probucol in all experiments”, the “Weight of liver, mean ± S.E.” value (mice (liver); [17]) was 6.80 ± 0.22 g/100 g of body weight and the “Percentage change of weight of liver” value (mice (liver); [17]) was “+7.1%”. The “Weight of liver, mean ± S.E.” value (mice (liver); [6]) was 6.63 ± 0.22 g/100 g of body weight, the “Percentage change of weight of liver” value (mice (liver); [6]) was “+4.4%” and the “Weight of liver, mean ± S.E.” value (mice (liver); [7]) was 6.86 ± 0.30 g/100 g of body weight. The “Percentage change of weight of liver” value (mice (liver); [8]) was “+8.0%”, the “Weight of liver, mean ± S.E.” value (mice (liver); [9]) was 6.43 ± 0.42 g/100 g of body weight and the “Percentage change of weight of liver” value (mice (liver); [10]) was “+1.3%”. For the same molecule, the “change in the weight of liver (hepatic toxicity)” value (mice (liver); [16]) was “did not give any significant change in the weight of liver; also recorded: did not give any effect on the weight of liver”, the LD50 at 168 h [3] was 996 mg/kg and the acute toxicity (mice) was “low acute toxicity”. The “Serum cholesterol level, mean ± S.E.” value ([4]; conc. of test compd. in feeds 0.0125%, * p < 0.05) was 130.7 ± 6.5 mg/dL, the “Percentage change of serum cholesterol” value [4, 17] was -13.0% and the “Serum cholesterol level, mean ± S.E.” value [4, 11] was 121.0 ± 3.7 mg/dL. For the same molecule, the “Percentage change of serum cholesterol” value [4, 6] was -19.4%, the “Serum cholesterol level, mean ± S.E.” value [4, 12] was 62.9 ± 6.4 mg/dL and the “Percentage change of serum cholesterol” value [4, 8] was -58.1%. For the same molecule, the “Serum cholesterol level, mean ± S.E.” value [4, 13] was 31.7 ± 3.7 mg/dL, the “Percentage change of serum cholesterol” value [4, 10] was -78.9% and the “serum cholesterol lowering activity in comparison with probucol” value [4, 15] was “more potent serum cholesterol lowering activity in comparison with the known probucol; also recorded: higher activities than those of probucol in all experiments”. The “Weight of liver, mean ± S.E.” value (rats (liver); dose per once 12.5 mg/kg) was 4.77 ± 0.07 g/100 g of body weight, the “Percentage change of weight of liver” value (rats (liver); dose per once 12.5 mg/kg) was -2.9% and the “Weight of liver, mean ± S.E.” value (rats (liver); dose per once 25 mg/kg) was 4.93 ± 0.10 g/100 g of body weight. For the same molecule, the “Percentage change of weight of liver” value (rats (liver); dose per once 25 mg/kg) was “+0.4%”, the “Weight of liver, mean ± S.E.” value (rats (liver); dose per once 50 mg/kg) was 5.05 ± 0.08 g/100 g of body weight and the “Percentage change of weight of liver” value (rats (liver); dose per once 50 mg/kg) was “+2.9%”. The “Weight of liver, mean ± S.E.” value (rats (liver); dose per once 100 mg/kg) was 5.17 ± 0.07 g/100 g of body weight, the “Percentage change of weight of liver” value (rats (liver); dose per once 100 mg/kg) was “+5.3%” and the “change in the weight of liver (hepatic toxicity)” value (rats (liver); [16]) was “did not give any significant change in the weight of liver; also recorded: did not give any effect on the weight of liver”.
